Earlier results on ten compounds are cited in patent publication US11612885B2, “Methods, compositions and kits useful for pH gradient cation exchange chromatography” (WATERS TECHNOLOGIES CORPORATION, priority 2018, dated 2023).

The conditions of the first data set: buffer salts used in the Examples.
Take `c1c[nH]cn1` [Imidazole, 1,3-diazacyclopenta-2,4-diene]: the pKa1 is 7.0.
For `CC(C)(N)CO` [AMP, 2-amino-2-methyl-1-propanol], the pKa1 is on record as 9.7.
For the compound `NCC(=O)O` [Gly, Aminoethanoic acid], the pKa1 is given as 2.4 and the pKa2 is 8.1.
Turning to `O=C(O)CCC(=O)O` [Succinic Acid, 1,4-butandioic acid], the pKa1 is 4.1 and the pKa2 is on record as 5.5.
Turning to `NCC(=O)NCC(=O)O` [Gly-Gly, 2-[(2-Aminoacetyl)amino] acetic acid], the pKa1 is given as 3.1 and the pKa2 is recorded as 8.1.
For `CC(N)(CO)CO` [AMPD, 2-amino-2-methyl-1,3-propanediol], the pKa1 is recorded as 8.8.
For `OCC(CO)(CO)NCCCNC(CO)(CO)CO` [BIS-TRIS Propane, 1,3-bis(tris(hydroxymethyl)methylamino)propane], the pKa1 is reported as 6.8 and the pKa2 is 9.1.
For the compound `O=S(=O)(O)CCCNC1CCCCC1` [CAPS, 3-(Cyclohexylamino)-1-propanesulfonic acid], the pKa1 was 10.4.
In the case of `NC(=O)CNCCS(=O)(=O)O` [ACES, 2-(carbamoylmethylamino)ethanesulfonic acid], the pKa1 is listed as 6.9.

For a further data set the following is noted: background statement; exposure.
Consider `C1CNCCN1` [Piperazine, 1,4-Diazinane], for which the known toxicity result is “acute respiratory and skin irritation as well as organ damage with prolonged exposure”.
